{"source": "paper PMC9319939", "about": "“Siccanin Is a Dual-Target Inhibitor of Plasmodium falciparum Mitochondrial Complex II and Complex III” (Pharmaceuticals, 2022)", "key": {"[1]": {"system": "glycerol-3-phosphate dehydrogenase (G3PDH)", "test": "G3PDH activity, crude mitochondrial fraction, DCIP reduction", "assay_type": "biochemical, Plasmodium falciparum", "method": "A synchronized parasite culture was grown for 64 h and a crude mitochondrial fraction was prepared from trophozoite-stage cells (as confirmed by Giemsa staining). Infected red blood cells were collected by centrifugation at 800× g for 5 min at 4 °C and incubated for 5 min at room temperature with 40 mL of 0.075% (w/v) saponin in AIM buffer (120 mM KCl, 20 mM NaCl, 10 mM PIPES (1,4-piperazinediethanesulfonic acid) buffer [pH 6.7], 1 mM MgCl2, 5 mM glucose). Released parasites were collected by centrifugation at 2780× g for 7 min at 4 °C and washed three times with AIM buffer. […]\nComplex II, DHODH, MQO, NDH2, G3PDH, and dihydroorotate-cytochrome c (DHO-cyt c) reductase activities were measured, as described previously, using a V-660 spectrophotometer (JASCO; Tokyo, Japan). Briefly, complex II activity was measured at 25 °C in a 1 mL reaction mixture containing 45 μM 2,6-dichlorophenolidophenol (DCIP), 100 μM ubiquinone-2 (UQ2), and 2 mM KCN in 50 mM potassium phosphate buffer, pH 8.0. DHODH, MQO, and G3PDH activities were measured at 25 °C in 1 mL of the reaction mixture containing 45 μM DCIP, 100 μM UQ2, and 2 mM KCN in 30 mM Tris-HCl buffer, pH 8.0. […] NDH2 activity was measured at 25 °C in 1 mL of the reaction mixture containing 100 µM UQ1 and 2 mM KCN in 50 mM potassium phosphate buffer, pH 8.0. […]"}, "P. falciparum Dd2": {"system": "P. falciparum Dd2", "test": "Growth inhibition of Dd2 parent", "assay_type": "cell-based", "conditions": "Plasmodium falciparum, DD2, read-out: Growth inhibition EC50, Dd2", "method": "(§1) P. falciparum 3D7-yDHODH was prepared and maintained as described previously. P. falciparum Dd2, and Dd2-derived mutant strains were kindly provided by David A. Fidock, and maintained at Nagasaki University essentially as described in reference, except without supplementation with WR99210.\n(§2) Synchronized ring-form parasites (0.3% parasitemia) were prepared in complete medium containing different concentration of various compounds (at a fixed final DMSO concentration of 0.1% (v/v)) and distributed to 96-well plates at 100 μL/well. After 72 h of incubation, parasite growth was monitored by the previously described lactate dehydrogenase (PfLDH)-based assay method; plates were read using a SpectraMax® Paradigm spectrophotometer (Molecular Devices, Inc.; San Jose, CA, USA). EC50 values were calculated using Prism® ver.6.01 (GraphPad; San Diego, CA, USA). Values are presented as the means of three independent experiments."}, "[2]": {"system": "Dd2_DHIQ (ATP4-G358S mutation)", "test": "Growth inhibition of Dd2_DHIQ (cipargamin-resistant)", "assay_type": "cell-based", "conditions": "Plasmodium falciparum, read-out: Growth inhibition EC50, DHIQ", "method": "as §1, §2"}, "[3]": {"system": "Dd2_ELQ300 (cyt b-I22L mutation at Qi site)", "test": "Growth inhibition of Dd2_ELQ300 (ELQ300-resistant)", "assay_type": "cell-based", "conditions": "Plasmodium falciparum, read-out: Growth inhibition EC50, ELQ300", "method": "as §1, §2"}, "[4]": {"system": "Dd2 and drug-resistant panel strains", "test": "Growth inhibition across Dd2 and drug-resistant panel strains", "assay_type": "cell-based", "conditions": "Plasmodium falciparum, DD2, read-out: EC50s for growth inhibition, range over strains", "method": "as §1, §2"}, "[5]": {"system": "P. falciparum (synchronized ring-form parasites)", "test": "Assessment of parasite survival, Giemsa-stained smears", "assay_type": "cell-based, Plasmodium falciparum", "conditions": "50 µM siccanin; 16, 24, 32, 48 h", "method": "Synchronized ring-form parasites (2% parasitemia) were prepared in complete medium containing 50 µM siccanin (at a fixed final DMSO concentration of 0.1% (v/v)) and distributed to 24-well plates at 1 mL/well. After incubation for 16, 24, 32, and 48 h, parasitemia was assessed under the microscope using thin blood smears stained with Giemsa."}, "P. falciparum 3D7 strain": {"system": "P. falciparum 3D7 strain", "test": "Isobologram analysis with atovaquone and siccanin, PfLDH-based", "assay_type": "cell-based, Plasmodium falciparum", "method": "The effect of the combination of atovaquone and siccanin was evaluated using isobologram analysis to evaluate the synergy, additivity, or antagonism between the two compounds [51, 83]. Synchronized ring-form parasites (0.3% parasitemia) were prepared in complete medium containing different concentrations of siccanin and atovaquone (at a fixed final DMSO concentration of 0.2% (v/v)) and distributed to 96-well plates at 100 μL/well. After 72 h of incubation, parasite growth was monitored by the previously described PfLDH-based assay using a SpectraMax® Paradigm spectrophotometer. IC50 values were calculated using Prism® ver.6.01. Data represent the means of three independent experiments, each performed in triplicate. The isobologram analysis was performed as described previously. For each combination assay, IC50s were calculated from each culture of P. falciparum grown in the presence of atovaquone or siccanin alone and in combination of various concentrations of the two compounds. The fractional inhibitory concentration (FIC) value was determined using the following equation: FIC =IC50 of compound in mixture/IC50 of compound alone\nThe combination index (CI) value was determined using the following equation: CI =IC50 of atovaquone in mixture/IC50 of atovaquone alone+IC50 of siccanin in mixture/IC50 of siccanin alone […]"}}}
{"molecule": "Cc1cc(O)c2c(c1)O[C@@]1(C)CC[C@H]3C(C)(C)CCC[C@]34CO[C@@H]2[C@H]41", "note": "[Siccanin]", "values": [{"measurement": "Effect on G3PDH activity", "setting": "[1]; 10 µM", "value": "weakly inhibited"}, {"measurement": "Relative residual activity of G3PDH", "setting": "[1]; siccanin 10 μM", "value": "72.5 ± 4.0", "unit": "%"}, {"measurement": "EC50", "setting": "P. falciparum Dd2", "value": 12.4, "unit": "µM"}, {"measurement": "EC50", "setting": "[2]", "value": 16.4, "unit": "µM"}, {"measurement": "EC50", "setting": "[3]", "value": 18.7, "unit": "µM"}, {"measurement": "EC50", "setting": "[4]", "value": "12.4 to 18.7", "unit": "µM"}, {"measurement": "Live parasites under the microscope", "setting": "[5]", "value": "could not detect live parasites"}, {"measurement": "Combination index", "setting": "P. falciparum 3D7 strain; combination of siccanin and atovaquone, 3D7, 72 h", "value": 1.0}, {"measurement": "Combinatory effect with atovaquone", "setting": "P. falciparum 3D7 strain; isobologram, 3D7", "value": "additive effect"}]}
